Assay results as given in patent publication US8093296B2 (Mutual Pharmaceutical Company, Inc., priority 2008, dated 2012).
Entries after “also recorded” stand apart in the source; their conditions may differ. Where two headings read alike, the source gives them in different places.

Experiments:
[1] = Pharmacokinetic study in healthy adults of single vs. multiple oral doses of colchicine tablets (Example 1); format: in vivo, human; conditions: for concentration at 25 day: 0.6 mg;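 as to all read-outs here: each subject received both dosing periods, single and repeated oral dosing, with a 14-day washout interval between periods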
Method: Subjects received a light breakfast served 60 minutes following dose administration in the morning and the evening dose was administered 90 minutes after an evening meal on Days 15 through 24 only. […] Study periods were separated by a 14-day washout. Following the single dose and the last dose of the multiple dose regimen (beginning on the mornings of Day 1 and Day 25, respectively), blood samples were collected (6 mL each) from each subject within 1 hour prior to dosing and after dose administration at study hours 0.5, 1, 1.5, 2, 3, 4, 6, 8, 10, 12, and 24 (while confined) and 36, 48, 72, and 96 (on an outpatient basis).

CYP2C9/19 = conditions: Dvorak 2000, preliminary; 1 and 10 μM colchicine; cited from earlier work
[2] = Colchicine elimination half-life after multiple oral doses in young healthy volunteers; format: in vivo; conditions: human, plasma; multiple oral doses 0.6 mg twice daily, young healthy volunteers (mean age 25 to 28 years)
[3] = colchicine 0.6 mg twice a day, two randomized clinical trials, patients initiating urate lowering therapy; cited from earlier work
[4] = colchicine administration; cited from earlier work
clinical = conditions: human, in vivo, 0.6 mg
Method: A single-center, open-label, one sequence, two-period study was carried out in 23 healthy subjects. […] After completing a 21-day washout period, all subjects received 250 mg of clarithromycin administered twice daily for 7 days (Days 22 through 29), a sufficient dose and duration to inhibit CYP3A4 and Pgp.

[5] = cited from earlier work
[6] = mean, multiple (b.i.d.) oral doses 0.6 mg x 10 days, Day 25, healthy adults N=13
[7] = mean, single oral dose 0.6 mg, healthy adults N=13
[8] = median, multiple (b.i.d.) oral doses 0.6 mg x 10 days, Day 25, healthy adults N=13
[9] = median, single oral dose 0.6 mg, healthy adults N=13
[10] = co-administration of clarithromycin vs colchicine alone
[11] = colchicine 0.6 mg with steady-state clarithromycin vs colchicine alone
[12] = mean, Day 1, single-dose colchicine 0.6 mg alone, healthy adults n=23

Question: With `COc1cc2c(c(OC)c1O)-c1ccc(OC)c(=O)cc1[C@@H](NC(C)=O)CC2` [2-DMC, 2-O-demethylcolchicine] as the molecule, how does the metabolite plasma concentrations ([1]; after colchicine 0.6 mg single and multiple doses, LOQ 0.2 ng/mL) read?
Answer: < 0.2 ng/mL

Question: Which results are given for `COc1c(O)cc2c(c1OC)-c1ccc(OC)c(=O)cc1[C@@H](NC(C)=O)CC2` [3-DMC, 3-O-demethylcolchciine]?
Answer: detectable metabolite plasma concentration ([1]; after colchicine 0.6 mg single and multiple doses, 13 subjects): only one sample from 1 subject (of 13 subjects) had a detectable; CYP2C9/19 protein levels (immunoblotting) (CYP2C9/19): decrease

Question: For `COc1cc2c(c(OC)c1OC)-c1ccc(OC)c(=O)cc1[C@@H](NC(C)=O)CC2` [Colchicine, (−)-N-[(7S,12aS)-1,2,3,10-tetramethoxy-9-oxo-5,6,7,9-tetrahydrobenzo[a]heptalen-7-yl]-acetamide], which “attainment of steady state (trough plasma concentrations)” value ([1]; 0.6 mg b.i.d., most subjects) is on record?
Answer: by approximately the eighth day of dosing

Question: What about the “plasma concentrations 24 hours post-dose” value ([1]; after a single 0.6 mg dose) of the same molecule?
Answer: no longer quantifiable 24 hours post-dose in all but 1 subject; also recorded: not detectable by 24 hours post-dose

Question: And the elimination half-life ([1]; calculated following a single oral dose, stated not an accurate estimate)?
Answer: approximately 5 hours

Question: What about the concentration at 25 day ([1]; human, in vivo, Day 25, read-out: mean Cmin concentration) of the same molecule?
Answer: 0.907 ng/mL

Question: And the concentration at 25 day ([1]; human, in vivo, po, mean, multiple (b.i.d.) oral doses 0.6 mg x 10 days, Day 25, healthy adults N=13, read-out: Cmin)?
Answer: 0.907 ng/mL

Question: And the concentration at 25 day ([1]; human, in vivo, po, median, multiple (b.i.d.) oral doses 0.6 mg x 10 days, Day 25, healthy adults N=13, read-out: Cave)?
Answer: 1.19 ng/mL

Question: What about the concentration at 25 day ([1]; human, in vivo, po, median, multiple (b.i.d.) oral doses 0.6 mg x 10 days, Day 25, healthy adults N=13, read-out: Cmin) of the same molecule?
Answer: 0.903 ng/mL

Question: What about the Vd/F ([1]; human, in vivo, mean (% CV), 0.6-mg single dose, Day 1, N=13) of the same molecule?
Answer: 540 L

Question: What about the AUC0-τ [1, 6] of the same molecule?
Answer: 0.02905623 µg·h/mL

Question: And the Cave [1, 6]?
Answer: 1.21068 ng/mL

Question: What about the Kel [1, 6] of the same molecule?
Answer: 0.03 h⁻¹

Question: And the AUC0-inf [1, 7]?
Answer: 0.0122819 µg·h/mL

Question: And the AUC0-t [1, 7]?
Answer: 0.01050854 µg·h/mL

Question: And the Cmax [1, 7]?
Answer: 2.47077 ng/mL

Question: What about the Kel [1, 7] of the same molecule?
Answer: 0.1829 h⁻¹

Question: And the AUC0-inf [1, 8]?
Answer: 0.05411343 µg·h/mL

Question: And the AUC0-τ [1, 8]?
Answer: 0.02845215 µg·h/mL

Question: What about the Kel [1, 8] of the same molecule?
Answer: 0.03 h⁻¹

Question: What about the T1/2 [1, 8] of the same molecule?
Answer: 26.51 h

Question: And the AUC0-t [1, 9]?
Answer: 0.0105609 µg·h/mL

Question: What about the Kel [1, 9] of the same molecule?
Answer: 0.1992 h⁻¹

Question: And the “secondary colchicine peak in individual subject data” value ([1]; single dose or multiple dosing)?
Answer: no subject experienced a secondary colchicine peak

Question: And the “Cmin prior to morning dose higher than Cmin prior to evening dose” value ([1]; steady state, Day 23 and Day 24)?
Answer: approximately 12%

Question: And the half-life [2]?
Answer: 26.6 to 31.2 h

Question: And the “decrease in apparent clearance (CL/F) of colchicine” value [10]?
Answer: 75%

Question: And the “increase in plasma elimination half-life (t1/2) of colchicine” value [10]?
Answer: 233%

Question: And the “increase in mean colchicine AUC0-t” value [11]?
Answer: 250%

Question: What about the “increase in mean colchicine Cmax” value [11] of the same molecule?
Answer: 167%

Question: What about the CL/F [12] of the same molecule?
Answer: 46.8 L/h

Question: And the Cmax [12]?
Answer: 3 ng/mL

Question: What about the Ke [12] of the same molecule?
Answer: 0.132 h⁻¹

Question: And the t1/2 [12]?
Answer: 9 h

Question: What about the “frequency of gout flares” value [3] of the same molecule?
Answer: decreased the frequency of gout flares

Question: And the “FMF patients that do not show a beneficial response” value [4]?
Answer: 5-10%

Question: And the “CYP2C9/19 protein levels (immunoblotting)” value (CYP2C9/19)?
Answer: appeared to decrease

Question: And the AUC0-inf (clinical)?
Answer: 0.016 µg·h/mL

Question: What about the AUC0-t (clinical) of the same molecule?
Answer: 0.012 µg·h/mL

Question: What about the Vd/F (clinical) of the same molecule?
Answer: 432 L

Question: With `CC[C@H]1OC(=O)[C@H](C)[C@@H](O[C@H]2C[C@@](C)(OC)[C@@H](O)[C@H](C)O2)[C@H](C)[C@@H](O[C@@H]2O[C@H](C)C[C@H](N(C)C)[C@H]2O)[C@](C)(OC)C[C@@H](C)C(=O)[C@H](C)[C@@H](O)[C@]1(C)O` [Clarithromycin] as the molecule, how does the “oral dose excreted in feces” value ([5]; in vivo, po) read?
Answer: About 40%

Question: And the “dose excreted as unchanged drug in urine” value ([5]; oral 250 mg every 12 hours)?
Answer: Approximately 20%

Question: And the “dose excreted as unchanged drug in urine” value ([5]; oral 500 mg every 12 hours)?
Answer: ~30%

Question: And the absolute bioavailability ([5]; oral administration)?
Answer: approximately 50%

Question: And the “increase of peak concentration by food” value ([5]; with food)?
Answer: about 24%
